Patent US20170027952A1, “ASSOCIATION BETWEEN 3-[(3--2-OXO-2,3-DIHYDRO-1H-INDOL-5-YL)METHYL]-1,3-THIAZOLIDINE-2,4-DIONE AND AN EGFR TYR KINASE INHIBITOR” (LES LABORATOIRES SERVIER, priority 2015, published 2017)
Where a name gives a salt, the structure may show the parent alone.

How the values were obtained:
[1] = test system: erlotinib-resistant cell line HCC827; details: resistant line HCC827, compound on its own, 100 nM
Procedure: A cell viability test allowing the anti-proliferative ability of the anti-tumour compounds to be measured was used. The chosen cell line is line HCC827, a non-small cell lung cancer line that depends upon EGFR for its survival. […] The cells are seeded (150 μl) at the appropriate density in the wells of 96-well plates 2 days prior to the experiment. One column contains the untreated control cells representing 100% proliferation. The others are incubated with the test products for 4 doubling times.

[2] = test system: erlotinib-resistant HCC827 tumour; experiment: Inhibition of the growth of the erlotinib-resistant HCC827 tumour; type: in vivo, female SCID mice; details: d19, end of treatments, compounds on their own, oral daily for 19 days; erlotinib 12.5 mg/kg, compound A 50 mg/kg
Procedure: The tumours were allocated at random into groups of eight mice when the tumour volume had reached approximately 200 mm^3. […] The tumour volumes were measured two to three times each week using a sliding caliper. The median tumour volumes with the interquartile ranges are recorded on the graph.

O=C1Nc2ccc(CN3C(=O)CSC3=O)cc2C1=Cc1cc(CN2CCOCC2)c[nH]1 [compound A, 3-[(3-{[4-(4-morpholinyl-methyl)-1H-pyrrol-2-yl]methylene}-2-oxo-2,3-dihydro-1H-indol-5-yl)methyl]-1,3-thiazolidine-2,4-dione hydrochloride]
effect on the viability [1]: no effect on the viability | inhibition of the growth [2]: 83%
